Tests used:
Assay type in all cases: biochemical
hCA I [1] = target: T1, hCA I (Homo sapiens, UniProt P00915); assay: CO2 hydratase activity inhibition of hCA I (pH-stat method)
Procedure: (§1) Erythrocytes were purified from human blood. The blood samples were centrifuged at 1500 rpm for 20 min, and plasma was removed. Later, red cells were washed with isotonic solution (0.9% NaCl), and the erythrocytes were hemolyzed with 1.5 volumes of ice-cold water. Cell membranes were removed by centrifugation at 4 °C, 20000 rpm for 30 min. The pH of hemolysate was adjusted to 8.7 with solid TRIS (tris(hydroxymethyl)aminomethane). […] After extensive washing with a solution of 25.0 mM TRIS-HCl/22.0 mM Na2SO4 (pH 8.7), the hCA I and hCA II isoenzymes were eluted with the solution of 1.0 M NaCl/25.0 mM Na2HPO4 (pH 6.3) and 0.1 M NaCH3COO/0.5 M NaClO4 (pH 5.6), respectively. For quantitative protein determination, the Bradford method was used with bovine serum albumin as standard. Also, the purity control of the isoenzymes was performed with SDS-PAGE after the purification.
(§2) The enzyme unit (EU) is the enzyme amount that reduces the non-enzymatic reaction time by 50%. The activity of an enzyme unit was calculated by using the equation ((t0−tc)/tc), where t0 and tc are times for pH change of the non-enzymatic and enzymatic reactions, respectively.
(§3) Regression analysis graphs were drawn by plotting the percent enzyme activity versus inhibitor concentration and IC50 values were calculated.

hCA II [2] = target: T2, hCA II (Homo sapiens, UniProt P00918); assay: CO2 hydratase activity inhibition of hCA II (pH-stat method)
Procedure: as §1, §2, §3

hCA I [3] = target: T1, hCA I; assay: Esterase activity inhibition of hCA I (4-nitrophenylacetate, 348 nm)
Procedure: as §1
(§4) The enzymatic reaction, in a total volume of 3.0 mL, contained 1.4 mL of 0.05 M TRIS–SO4 buffer (pH 7.4), 1.0 mL of 3.0 mM 4-nitrophenylacetate, 0.5 mL H2O, and 0.1 mL enzyme solution. A reference measurement was obtained by preparing the same cuvette without enzyme solution.
as §3
(§5) Enzyme activity was also measured in the presence of the same substrate concentrations but in the absence of any inhibitor to determine the Vmax (Supplementary Figure S3).

hCA II [4] = target: T2, hCA II; assay: Esterase activity inhibition of hCA II (4-nitrophenylacetate, 348 nm)
Procedure: as §1, §4, §3, §5

[5] = CO2 hydratase activity, 0 °C, veronal buffer pH 8.15, mean ± standard error, three assays
[6] = 4-nitrophenylacetate, 25 °C, TRIS-SO4 pH 7.4, mean ± standard error, three assays
[7] = determined by esterase activity measurements, Lineweaver-Burk plot, mean ± standard error, three assays

T1 sequence (P00915 whole entry): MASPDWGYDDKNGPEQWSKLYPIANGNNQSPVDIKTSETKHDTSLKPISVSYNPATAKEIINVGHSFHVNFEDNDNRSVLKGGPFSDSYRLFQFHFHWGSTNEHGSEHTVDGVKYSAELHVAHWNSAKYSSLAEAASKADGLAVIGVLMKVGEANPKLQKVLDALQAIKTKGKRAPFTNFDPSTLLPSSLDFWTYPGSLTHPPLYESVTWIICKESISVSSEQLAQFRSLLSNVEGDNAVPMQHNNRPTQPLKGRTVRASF

Compound	Inhibition of hydratase activity of hCA I (in words) (hCA I [1])	Hydratase IC50 hCA I (hCA I [1]; [5])	Inhibition of hydratase activity of hCA II (in words) (hCA II [2])	Hydratase IC50 hCA II (hCA II [2]; [5])	Inhibition of esterase activity of hCA I (in words) (hCA I [3])	Esterase IC50 hCA I (hCA I [3]; [6])	Ki hCA I (hCA I [3]; [7])	Inhibition of esterase activity of hCA II (in words) (hCA II [4])	Esterase IC50 hCA II (hCA II [4]; [6])	Ki hCA II (hCA II [4]; [7])	IC50 (hCA I [1]; [5]) [nM]	IC50 (hCA II [2]; [5]) [nM]	IC50 (hCA I [3]; [6]) [nM]	Ki (hCA I [3]; [7]) [nM]	IC50 (hCA II [4]; [6]) [nM]	Ki (hCA II [4]; [7]) [nM]	hCA II inhibited stronger than hCA I (esterase activity) (hCA II [4]; esterase activity, hCA II versus hCA I) [fold]
O=C(O)c1cccc(C(=O)O)n1 [Compound H2DPC, 2,6-pyridinedicarboxylic acid, reference compound]	have not inhibited	No inhibition	have not inhibited	No inhibition	have not inhibited	No inhibition	No inhibition	have not inhibited	No inhibition	No inhibition	–	–	–	–	–	–	–
NC(=S)Nc1ccc(S(N)(=O)=O)cc1 [TBS, 4-thioureidobenzenesulfonamide, reference compound]	–	–	–	–	–	–	–	–	–	–	7846 ± 5	4334 ± 21	499 ± 10	268 ± 7	234 ± 6	114 ± 3	–
(SMHABT)2[Co(DPC)2].5H2O [Compound 3]	–	–	–	–	–	–	–	–	–	–	1601 ± 8	703 ± 14	66 ± 4	28 ± 2	41 ± 3	13 ± 6	1.5
(SMHABT)[Fe(DPC)2].4H2O [Compound 2]	–	–	–	–	–	–	–	–	–	–	2533 ± 23	1010 ± 13	409 ± 21	192 ± 19	189 ± 5	101 ± 5	–
(SMHABT)2[Ni(DPC)2].5H2O [Compound 4]	–	–	–	–	–	–	–	–	–	–	397 ± 11	212 ± 6	136 ± 3	43 ± 12	54 ± 1	21 ± 4	–
Nc1nc2ccc(S(N)(=O)=O)cc2s1.O=C(O)c1cccc(C(=O)O)n1 [Compound 1, (SMHABT)^+(HDPC)^−]	–	–	–	–	–	–	–	–	–	–	4075 ± 18	1998 ± 9	258 ± 17	149 ± 17	133 ± 15	85 ± 19	–
Nc1nc2ccc(S(N)(=O)=O)cc2s1 [SMABT, 2-amino-6-sulfamoylbenzothiazole]	–	–	–	–	–	–	–	–	–	–	6348 ± 12	3876 ± 14	567 ± 8	306 ± 4	322 ± 6	162 ± 10	–
